The record followed here is US12479830B2, “Homopiperazinyl and homopiperidinyl quinazolin-4(3H)-one derivatives having multimodal activity against pain” (ESTEVE PHARMACEUTICALS, S.A., priority 2019, dated 2025).

Each structure is given as a SMILES string.

Test [1] has as its target T1, Human σ1 receptor (Homo sapiens, UniProt Q99720).
T1 construct: expressed in transfected cells; host or cells: HEK-293
As to the kind of experiment: Human σ1 receptor radioligand assay ([3H](+)-pentazocine binding). As to conditions: binding to the σ1 receptor, expressed as Ki class; + also covers inhibition between 1% and 50%. A digest of the protocol:
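Ki was derived from five test concentrations, or % inhibition was measured at a single 1 or 10 μM dose, against 5 nM [3H](+)-pentazocine. Incubation was 120 min at 37° C in 50 mM Tris-HCl pH 8 with 7 μg HEK-293 membranes, and 10 μM haloperidol set non-specific binding. Bound radioactivity was counted after filtration.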

The target in test [2] is Human α2δ-1 subunit of Cav2.2 calcium channel (Homo sapiens, UniProt P54289). As to the kind of experiment: Human α2δ-1 subunit of Cav2.2 calcium channel assay ([3H]-gabapentin binding). As to conditions: binding to the α2δ-1 subunit of voltage-gated calcium channels, expressed as Ki class; + also covers inhibition between 1% and 50%. A digest of the protocol:
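Affinity (Ki, five concentrations) or % inhibition at 1 or 10 μM, from displacement of 15 nM [3H]-gabapentin on human α2δ-1 membranes. Incubation 60 min, 27° C., Hepes-KOH 10 mM pH 7.4; 10 μM pregabalin defined non-specific binding; bound radioactivity counted after GF/C filtration.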

T1 sequence (Q99720 whole entry): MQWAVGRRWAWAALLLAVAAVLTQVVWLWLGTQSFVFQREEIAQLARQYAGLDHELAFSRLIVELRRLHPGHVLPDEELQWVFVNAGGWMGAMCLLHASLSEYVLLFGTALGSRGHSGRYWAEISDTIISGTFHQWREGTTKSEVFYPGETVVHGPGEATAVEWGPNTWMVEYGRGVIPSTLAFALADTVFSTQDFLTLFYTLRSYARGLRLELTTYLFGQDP
Sequence of Human α2δ-1 subunit of Cav2.2 calcium channel (P54289 25-1103): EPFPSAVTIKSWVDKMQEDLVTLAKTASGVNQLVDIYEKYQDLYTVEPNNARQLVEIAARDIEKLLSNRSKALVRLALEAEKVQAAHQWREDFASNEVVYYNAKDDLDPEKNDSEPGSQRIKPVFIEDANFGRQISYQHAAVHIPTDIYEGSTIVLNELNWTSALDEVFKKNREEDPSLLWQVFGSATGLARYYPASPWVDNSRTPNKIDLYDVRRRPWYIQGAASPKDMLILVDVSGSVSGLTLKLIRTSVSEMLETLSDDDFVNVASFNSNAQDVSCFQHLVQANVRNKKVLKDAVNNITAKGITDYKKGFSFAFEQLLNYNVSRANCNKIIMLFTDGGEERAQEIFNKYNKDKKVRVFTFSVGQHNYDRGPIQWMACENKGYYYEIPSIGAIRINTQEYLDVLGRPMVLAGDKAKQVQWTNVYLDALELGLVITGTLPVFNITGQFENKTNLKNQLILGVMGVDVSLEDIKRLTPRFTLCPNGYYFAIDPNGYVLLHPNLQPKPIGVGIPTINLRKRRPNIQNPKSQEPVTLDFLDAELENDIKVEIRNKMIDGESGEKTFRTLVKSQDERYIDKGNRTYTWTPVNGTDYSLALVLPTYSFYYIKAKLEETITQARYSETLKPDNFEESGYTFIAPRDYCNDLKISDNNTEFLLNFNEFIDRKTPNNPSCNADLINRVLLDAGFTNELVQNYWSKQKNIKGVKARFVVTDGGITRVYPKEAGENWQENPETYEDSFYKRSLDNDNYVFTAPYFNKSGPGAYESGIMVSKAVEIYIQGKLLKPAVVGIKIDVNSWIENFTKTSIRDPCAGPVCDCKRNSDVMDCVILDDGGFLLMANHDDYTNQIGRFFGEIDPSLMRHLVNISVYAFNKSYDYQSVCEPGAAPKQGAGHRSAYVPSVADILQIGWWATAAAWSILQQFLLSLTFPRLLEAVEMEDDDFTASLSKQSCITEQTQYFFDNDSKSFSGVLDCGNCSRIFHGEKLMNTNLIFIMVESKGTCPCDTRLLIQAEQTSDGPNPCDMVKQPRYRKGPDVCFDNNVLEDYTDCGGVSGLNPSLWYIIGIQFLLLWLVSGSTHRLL

`CCC[C@@H](c1nc2cc(F)c(Cl)cc2c(=O)n1CC)N1CCN(C)C[C@@H](C)C1` [Example 138, 6-chloro-2-((S)-1-((R)-4,6-dimethyl-1,4-diazepan-1-yl)butyl)-3-ethyl-7-fluoroquinazolin-4 (3H)-one]: the values for the inhibition constant Ki in test [1] and in test [2] were 500 to 1000 nM and more than 5000 nM, respectively.

As for `CCC[C@H](c1nc2ccc(Br)cc2c(=O)n1CC)N1CCCN[C@H](C)C1` [Example 139, 6-Bromo-3-ethyl-2-((R)-1-((R)-3-methyl-1,4-diazepan-1-yl)butyl)quinazolin-4(3H)-one], the results for the inhibition constant (Ki) in test [1] and in test [2] were 500 to 1000 nM and less than 500 nM, respectively.

Take `CCC[C@@H](c1nc2ccc(Br)cc2c(=O)n1CC)N1CCCN[C@@H](C)C1` [Example 140, 6-bromo-3-ethyl-2-((S)-1-((S)-3-methyl-1,4-diazepan-1-yl)butyl)quinazolin-4(3H)-one]: the values for the Ki in test [1] and in test [2] were more than 1000 nM and more than 5000 nM, respectively.

As to `CCC[C@@H](c1nc2ccc(Br)cc2c(=O)n1CC)N1CCCN[C@H](C)C1` [Example 141, 6-bromo-3-ethyl-2-((S)-1-((R)-3-methyl-1,4-diazepan-1-yl)butyl)quinazolin-4(3H)-one], the Ki (as a rule, the equilibrium dissociation constant of an inhibitor or competing ligand from its target) is 500 to 1000 nM in test [1] and more than 5000 nM in test [2].

As to `CCC[C@H](c1nc2ccc(Br)cc2c(=O)n1CC)N1CCCN[C@@H](C)C1` [Example 142, 6-bromo-3-ethyl-2-((R)-1-((S)-3-methyl-1,4-diazepan-1-yl)butyl)quinazolin-4(3H)-one], the figures for the Ki in test [1] and in test [2] were more than 1000 nM and less than 500 nM, respectively.

`CCC[C@H](c1nc2ccc(F)cc2c(=O)n1CC)N1CCCN[C@H](C)C1` [Example 143, 3-Ethyl-6-fluoro-2-((R)-1-((R)-3-methyl-1,4-diazepan-1-yl)butyl)quinazolin-4(3H)-one]: the Ki in test [1] and in test [2] was less than 500 nM in each case.

On to `CCC[C@@H](c1nc2ccc(F)cc2c(=O)n1CC)N1CCCN[C@@H](C)C1` [Example 144, 3-ethyl-6-fluoro-2-((S)-1-((S)-3-methyl-1,4-diazepan-1-yl)butyl)quinazolin-4(3H)-one], for which the Ki in test [1] was more than 1000 nM; in test [2], more than 5000 nM.

`CCC[C@H](c1nc2ccc(F)cc2c(=O)n1CC)N1CCCN[C@@H](C)C1` [Example 145, 3-ethyl-6-fluoro-2-((R)-1-((S)-3-methyl-1,4-diazepan-1-yl)butyl)quinazolin-4(3H)-one]: the Ki in test [1] was more than 1000 nM; in test [2], less than 500 nM.

As to `CCC[C@@H](c1nc2ccc(F)cc2c(=O)n1CC)N1CCCN[C@H](C)C1` [Example 146], the inhibition constant Ki in test [1] was more than 1000 nM; in test [2], more than 5000 nM.

On to `CCC[C@H](c1nc2ccc(Cl)cc2c(=O)n1C)N1CCCN[C@H](C)C1` [Example 147, 6-Chloro-3-methyl-2-((R)-1-((R)-3-methyl-1,4-diazepan-1-yl)butyl)quinazolin-4(3H)-one], for which the Ki in test [1] and in test [2] was less than 500 nM in each case.

`CCC[C@H](c1nc2ccc(Cl)cc2c(=O)n1C)N1CCCN[C@@H](C)C1` [Example 148, 6-chloro-3-methyl-2-((R)-1-((S)-3-methyl-1,4-diazepan-1-yl)butyl)quinazolin-4(3H)-one]: the inhibitory constant (Ki) is more than 1000 nM in test [1] and less than 500 nM in test [2].

Take `CCC[C@@H](c1nc2ccc(Cl)cc2c(=O)n1C)N1CCCN[C@@H](C)C1` [Example 149, 6-chloro-3-methyl-2-((S)-1-((S)-3-methyl-1,4-diazepan-1-yl)butyl)quinazolin-4(3H)-one]: the Ki in test [1] is less than 500 nM; in test [2], more than 5000 nM.

Take `CCC[C@@H](c1nc2ccc(Cl)cc2c(=O)n1C)N1CCCN[C@H](C)C1` [Example 150, 6-chloro-3-methyl-2-((S)-1-((R)-3-methyl-1,4-diazepan-1-yl)butyl)quinazolin-4(3H)-one]: the inhibition constant (Ki) is 500 to 1000 nM in test [1] and more than 5000 nM in test [2].

As to `CCC[C@H](c1nc2ccc(Br)cc2c(=O)n1CC)N1CCCN(C)CC1` [Example 151, (R)-6-Bromo-3-ethyl-2-(1-(4-methyl-1,4-diazepan-1-yl)butyl)quinazolin-4(3H)-one], the inhibition constant (Ki) in test [1] and in test [2] was less than 500 nM in each case.

On to `CCC[C@@H](c1nc2ccc(Br)cc2c(=O)n1CC)N1CCCN(C)CC1` [Example 152, (S)-6-bromo-3-ethyl-2-(1-(4-methyl-1,4-diazepan-1-yl)butyl)quinazolin-4(3H)-one], for which the inhibition constant Ki is 500 to 1000 nM in test [1] and more than 5000 nM in test [2].

As for `CCC[C@H](c1nc2ccc(Br)cc2c(=O)n1CC)N1CCCN(CC)CC1` [Example 153, (R)-6-Bromo-3-ethyl-2-(1-(4-ethyl-1,4-diazepan-1-yl)butyl)quinazolin-4(3H)-one], the inhibition constant (Ki) in test [1] and in test [2] was less than 500 nM throughout.

With `CCC[C@@H](c1nc2ccc(Br)cc2c(=O)n1CC)N1CCCN(CC)CC1` [Example 154, (S)-6-bromo-3-ethyl-2-(1-(4-ethyl-1,4-diazepan-1-yl)butyl)quinazolin-4(3H)-one], the Ki in test [1] was less than 500 nM; in test [2], more than 5000 nM.

`CCC[C@H](c1nc2cc(F)c(Br)cc2c(=O)n1CC)N1CCCN(C)CC1` [Example 155, (R)-6-Bromo-3-ethyl-7-fluoro-2-(1-(4-methyl-1,4-diazepan-1-yl)butyl)quinazolin-4(3H)-one]: the results for the Ki in test [1] and in test [2] were more than 1000 nM and more than 5000 nM, respectively.

As to `CCC[C@@H](c1nc2cc(F)c(Br)cc2c(=O)n1CC)N1CCCN(C)CC1` [Example 156, (S)-6-bromo-3-ethyl-7-fluoro-2-(1-(4-methyl-1,4-diazepan-1-yl)butyl)quinazolin-4(3H)-one], the inhibition constant (Ki) in test [1] was 500 to 1000 nM; in test [2] it was more than 5000 nM.

As to `CCC[C@H](c1nc2cc(F)c(Br)cc2c(=O)n1CC)N1CCCNCC1` [Example 157, (R)-2-(1-(1,4-Diazepan-1-yl)butyl)-6-bromo-3-ethyl-7-fluoroquinazolin-4(3H)-one], the inhibitory constant (Ki) in test [1] was more than 1000 nM; in test [2], less than 500 nM.

Consider `CCC[C@@H](c1nc2cc(F)c(Br)cc2c(=O)n1CC)N1CCCNCC1` [Example 158, (S)-2-(1-(1,4-diazepan-1-yl)butyl)-6-bromo-3-ethyl-7-fluoroquinazolin-4(3H)-one], for which the Ki in test [1] was more than 1000 nM; in test [2] it was more than 5000 nM.

Regarding `CCC[C@H](c1nc2ccc(Cl)cc2c(=O)n1CCC)N1CCCN(C)CC1` [Example 159, (R)-6-Chloro-2-(1-(4-methyl-1,4-diazepan-1-yl)butyl)-3-propylquinazolin-4(3H)-one], the inhibitory constant (Ki) in test [1] and in test [2] was less than 500 nM throughout.

For the compound `CCC[C@@H](c1nc2ccc(Cl)cc2c(=O)n1CCC)N1CCCN(C)CC1` [Example 160, (S)-6-chloro-2-(1-(4-methyl-1,4-diazepan-1-yl)butyl)-3-propylquinazolin-4(3H)-one], the inhibition constant Ki in test [1] is more than 1000 nM; in test [2] it was more than 5000 nM.

Take `CCC[C@H](c1nc2c(F)cc(Br)cc2c(=O)n1CC)N1CCCN(C)CC1` [Example 161, (R)-6-Bromo-3-ethyl-8-fluoro-2-(1-(4-methyl-1,4-diazepan-1-yl)butyl)quinazolin-4(3H)-one]: the Ki in test [1] was 500 to 1000 nM; in test [2], less than 500 nM.

For the compound `CCC[C@@H](c1nc2c(F)cc(Br)cc2c(=O)n1CC)N1CCCN(C)CC1` [Example 162, (S)-6-bromo-3-ethyl-8-fluoro-2-(1-(4-methyl-1,4-diazepan-1-yl)butyl)quinazolin-4(3H)-one], the inhibitory constant (Ki) was 500 to 1000 nM in test [1] and more than 5000 nM in test [2].

For `CCCC(c1nc2ccncc2c(=O)n1CC)N1CCCN(C)CC1` (stereo not shown) [Example 163, 3-Ethyl-2-(1-(4-methyl-1,4-diazepan-1-yl)butyl)pyrido[4,3-d]pyrimidin-4(3H)-one], the inhibition constant Ki is more than 1000 nM in test [1] and less than 500 nM in test [2].

On to `CCC[C@H](c1nc2ccncc2c(=O)n1CC)N1CCNC[C@H](C)C1` [Example 164, 3-ethyl-2-((R)-1-((S)-6-methyl-1,4-diazepan-1-yl)butyl)pyrido[4,3-d]pyrimidin-4(3H)-one], for which the inhibitory constant (Ki) in test [1] is more than 1000 nM; in test [2] it was less than 500 nM.

On to `CCC[C@H](c1nc2ccncc2c(=O)n1CC)N1CCNC[C@@H](C)C1` [Example 165, 3-ethyl-2-((R)-1-((R)-6-methyl-1,4-diazepan-1-yl)butyl)pyrido[4,3-d]pyrimidin-4(3H)-one], for which the Ki is more than 1000 nM in test [1] and less than 500 nM in test [2].

Turning to `CCC[C@@H](c1nc2ccncc2c(=O)n1CC)N1CCNC[C@H](C)C1` [Example 166, 3-ethyl-2-((S)-1-((S)-6-methyl-1,4-diazepan-1-yl)butyl)pyrido[4,3-d]pyrimidin-4(3H)-one], the Ki was more than 1000 nM in test [1] and more than 5000 nM in test [2].

Take `CCC[C@@H](c1nc2ccncc2c(=O)n1CC)N1CCNC[C@@H](C)C1` [Example 167, 3-ethyl-2-((S)-1-((R)-6-methyl-1,4-diazepan-1-yl)butyl)pyrido[4,3-d]pyrimidin-4(3H)-one]: the inhibition constant (Ki) was more than 1000 nM in test [1] and 500 to 5000 nM in test [2].

`CCC[C@H](c1nc2ccncc2c(=O)n1CC)N1CCN(C)C[C@@H](C)C1` [Example 168, 2-((R)-1-((R)-4,6-dimethyl-1,4-diazepan-1-yl)butyl)-3-ethylpyrido[4,3-d]pyrimidin-4(3H)-one]: the values for the Ki in test [1] and in test [2] were more than 1000 nM and less than 500 nM, respectively.

`CCC[C@H](c1nc2ccncc2c(=O)n1CC)N1CCN(C)C[C@H](C)C1` [Example 169, 2-((R)-1-((S)-4,6-dimethyl-1,4-diazepan-1-yl)butyl)-3-ethylpyrido[4,3-d]pyrimidin-4(3H)-one]: the Ki is more than 1000 nM in test [1] and less than 500 nM in test [2].
